Measured values as given in patent publication US20230027361A1, “METTL3 MODULATORS” (priority 2019, published 2023).

The molecules below were run against METTL3/METTL14 (Homo sapiens, UniProt Q86U44) (assay: METTL3-14 Standard Enzyme Assay (METTL3 biochemical assay)). Settings: METTL3 biochemical assay; read-out: METTL3 IC50.
Sequence of METTL3/METTL14 (Q86U44 whole entry, species assumed): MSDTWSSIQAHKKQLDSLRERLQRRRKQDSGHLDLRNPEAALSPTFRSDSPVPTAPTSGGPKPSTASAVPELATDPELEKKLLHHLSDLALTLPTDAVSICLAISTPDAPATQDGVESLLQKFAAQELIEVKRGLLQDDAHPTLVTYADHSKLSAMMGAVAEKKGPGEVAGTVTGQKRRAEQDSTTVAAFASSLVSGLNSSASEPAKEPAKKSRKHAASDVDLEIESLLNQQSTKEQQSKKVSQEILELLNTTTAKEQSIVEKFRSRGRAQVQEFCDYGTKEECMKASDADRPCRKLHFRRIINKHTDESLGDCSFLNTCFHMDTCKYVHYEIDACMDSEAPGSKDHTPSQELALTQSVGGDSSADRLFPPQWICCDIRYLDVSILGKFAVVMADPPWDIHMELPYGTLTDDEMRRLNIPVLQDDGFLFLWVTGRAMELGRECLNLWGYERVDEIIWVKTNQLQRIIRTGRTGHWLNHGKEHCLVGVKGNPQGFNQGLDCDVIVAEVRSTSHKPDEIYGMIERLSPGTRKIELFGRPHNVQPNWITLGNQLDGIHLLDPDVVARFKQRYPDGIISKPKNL
Sequence of METTL3/METTL14 (Q9HCE5 whole entry partner, species assumed): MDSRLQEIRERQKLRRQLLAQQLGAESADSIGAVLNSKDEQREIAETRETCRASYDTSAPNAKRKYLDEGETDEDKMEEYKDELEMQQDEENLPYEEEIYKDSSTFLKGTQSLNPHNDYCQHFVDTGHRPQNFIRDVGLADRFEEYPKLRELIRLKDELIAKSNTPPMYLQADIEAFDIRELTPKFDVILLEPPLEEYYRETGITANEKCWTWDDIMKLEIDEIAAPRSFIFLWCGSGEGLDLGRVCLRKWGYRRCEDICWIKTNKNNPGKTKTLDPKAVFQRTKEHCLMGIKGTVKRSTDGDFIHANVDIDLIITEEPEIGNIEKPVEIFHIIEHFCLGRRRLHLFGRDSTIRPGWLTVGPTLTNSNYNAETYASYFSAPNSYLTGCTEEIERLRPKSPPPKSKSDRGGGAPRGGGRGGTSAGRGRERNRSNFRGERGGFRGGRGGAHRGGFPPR
Experimental: Assays were performed in a 25 μl-volume in 384-well V-bottom polypropylene microplates (Greiner Bio-One, cat. No. 781280) at ambient temperature. Optimized 1× assay buffer was 20 mM HEPES pH 7.5, 50 mM KCl, 250 μM MgCl2, 1 mM DTT, 0.01% Tween, 0.01% BSG, 0.004 U/μl RNAseOUT (cat. No. 10777019, ThermoFisher Scientific, Waltham, Mass.). For compound screening METTL3/METTL14 (final concentration, f.c.=2.5 nM) was added using a Multidrop Combi (ThermoFisher Scientific, Waltham, Mass.) and preincubated for 5 min. Reactions were started by adding 3′ biotinylated RNA ([…]-biotin) (f.c.=100 nM) and 3H-SAM (f.c.=100 nM) substrates. Reactions proceeded for 30 minutes and were quenched with excess non-radioactive SAM (f.c.=15 μM). The reactions were then transferred to streptavidin-coated flashplates and incubated for 2 hours at 25° C. Following two washing cycles with 0.1% Tween-20, the plates were sealed and read on a TopCount (PerkinElmer, Waltham, Mass.) plate-based scintillation counter. For determination of kinetic parameters, reaction times were optimized so that measurements were taken during the initial velocity phase of the reaction.
In the case of `Nc1ncnc2c1ccn2[C@@H]1C[C@H](CCc2ccc3c(OCc4ccccc4)ccnc3c2)[C@@H](O)[C@H]1O` [I-86], the IC50 is reported as greater than 1000 nM. For `CNc1ccc2cc(F)c(CC[C@H]3C[C@@H](n4ccc5c(N)ncnc54)[C@H](O)[C@@H]3O)cc2n1` [I-87], the IC50 was 10 to 100 nM. `Nc1ncnc2c1ccn2[C@@H]1C[C@H](CCc2ccc3[nH]cnc3c2)[C@@H](O)[C@H]1O` [I-88] gave an IC50 greater than 1000 nM. Molecule `O[C@@H]1[C@@H](CCc2ccc3[nH]ncc3c2)C[C@@H](n2ccc3c(NCCc4ccccc4)ncnc32)[C@@H]1O` [I-89] has an IC50 greater than 1000 nM. Molecule `Nc1ccc2ccc(OC[C@H]3C[C@@H](n4ccc5c(NCCc6ccccc6)ncnc54)[C@H](O)[C@@H]3O)cc2n1` [I-91] has an IC50 greater than 1000 nM. Molecule `Nc1ncnc2c1ccn2[C@@H]1C[C@H](CCc2ccc3[nH]ccc3c2)[C@@H](O)[C@H]1O` [I-92] has an IC50 greater than 1000 nM. With `Nc1ncnc2c1ccn2[C@@H]1C[C@H](CCc2ccc3[nH]c(=O)[nH]c3c2)[C@@H](O)[C@H]1O` [I-93] the IC50 was greater than 1000 nM. Work on `CN(C[C@H]1C[C@@H](n2ccc3c(N)ncnc32)[C@H](O)[C@@H]1O)c1ccc2ccc(N)nc2c1` [I-94] yielded an IC50 greater than 1000 nM. `NC(=O)Nc1cccc(CC[C@H]2C[C@@H](n3ccc4c(N)ncnc43)[C@H](O)[C@@H]2O)c1` [I-95] was tested, and the IC50 was greater than 1000 nM. In the case of `Nc1ncnc2c1ccn2[C@@H]1C[C@H](CCc2cccc(NC(=O)C3CC3)c2)[C@@H](O)[C@H]1O` [I-96], the IC50 is reported as greater than 1000 nM. `Nc1ccc2cc(CC[C@H]3C[C@@H](n4ccc5c(NCCc6ccccc6)ncnc54)[C@H](O)[C@@H]3O)ccc2n1` [I-97] showed an IC50 greater than 1000 nM.

Same assay, conditions: read-out: METTL3 IC50; METTL3 biochemical assay
In the case of `Cn1cc(-c2cn([C@@H]3C[C@H](CCc4ccc5ccc(N)nc5c4)[C@@H](O)[C@H]3O)c3ncnc(N)c23)cn1` [I-63], the IC50 is reported as 100 to 1000 nM.

The molecules below were run against METTL1/WDR4 (Homo sapiens, UniProt Q9UBP6) (assay: METTL1 Assay (METTL1 biochemical assay)). Settings: METTL1 biochemical assay; read-out: METTL1 IC50.
Sequence of METTL1/WDR4 (Q9UBP6 whole entry, species assumed): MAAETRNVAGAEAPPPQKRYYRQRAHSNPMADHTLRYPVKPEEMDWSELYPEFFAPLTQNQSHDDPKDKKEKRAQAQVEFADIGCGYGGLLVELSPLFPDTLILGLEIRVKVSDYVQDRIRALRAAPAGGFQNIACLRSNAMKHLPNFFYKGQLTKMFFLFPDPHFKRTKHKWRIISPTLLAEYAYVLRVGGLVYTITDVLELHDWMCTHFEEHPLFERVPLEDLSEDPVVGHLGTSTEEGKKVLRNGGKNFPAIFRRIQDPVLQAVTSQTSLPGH
Sequence of METTL1/WDR4 (P57081 whole entry partner, species assumed): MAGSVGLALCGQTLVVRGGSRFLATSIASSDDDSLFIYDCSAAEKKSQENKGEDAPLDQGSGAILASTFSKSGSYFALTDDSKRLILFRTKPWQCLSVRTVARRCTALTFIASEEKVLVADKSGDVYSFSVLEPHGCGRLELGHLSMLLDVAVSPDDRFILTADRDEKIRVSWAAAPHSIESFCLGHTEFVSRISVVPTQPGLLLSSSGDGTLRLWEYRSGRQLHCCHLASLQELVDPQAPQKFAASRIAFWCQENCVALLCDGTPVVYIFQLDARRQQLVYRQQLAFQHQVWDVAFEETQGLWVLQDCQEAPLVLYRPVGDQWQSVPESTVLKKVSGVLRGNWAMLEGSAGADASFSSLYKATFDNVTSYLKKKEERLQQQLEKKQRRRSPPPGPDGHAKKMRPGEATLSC
Experimental: Assays were performed in a 25 μl-volume in 384-well V-bottom polypropylene microplates (Greiner Bio-One, cat. No. 781280) at ambient temperature. Optimized 1× assay buffer was 20 mM HEPES pH 7.5, 50 mM KCl, 250 μM MgCl2, 1 mM DTT, 0.01% Tween, 0.01% BSG, 0.004 U/μl RNAseOUT (cat. No. 10777019, ThermoFisher Scientific, Waltham, Mass.). For compound screening METTL1/WDR4 (final concentration, f.c.=6.25 nM) was added using a Multidrop Combi (ThermoFisher Scientific, Waltham, Mass.) and preincubated for 5 min. Reactions were started by adding 3′ biotinylated RNA ([…]-biotin) (f.c.=25 nM) and 3H-SAM (f.c.=60 nM) substrates. Reactions proceeded for 20 minutes and were quenched with excess non-radioactive SAM (f.c.=15 μM). The reactions were then transferred to streptavidin-coated flashplates and incubated for 2 hours at 25° C. Following two washing cycles with 0.1% Tween-20, the plates were sealed and read on a TopCount (PerkinElmer, Waltham, Mass.) plate-based scintillation counter. For determination of kinetic parameters, reaction times were optimized so that measurements were taken during the initial velocity phase of the reaction.
`Cn1cc(-c2cn([C@@H]3C[C@H](CCc4ccc5ccc(N)nc5c4)[C@@H](O)[C@H]3O)c3ncnc(N)c23)cn1` [I-63] gave an IC50 greater than 1000 nM. `Nc1ccc2ccc(OC[C@H]3C[C@@H](n4ccc5c(NCCc6ccccc6)ncnc54)[C@H](O)[C@@H]3O)cc2n1` [I-91] showed an IC50 greater than 1000 nM. For `Nc1ncnc2c1ccn2[C@@H]1C[C@H](CCc2ccc3ccc(NCC4CC4)nc3c2)[C@@H](O)[C@H]1O` [I-132], the IC50 was greater than 1000 nM. Molecule `Nc1ncnc2c1ccn2[C@@H]1C[C@H](CCc2ccc3cccnc3c2)[C@@H](O)[C@H]1O` [I-133] has an IC50 greater than 1000 nM.

Same assay, conditions: read-out: METTL1 IC50; METTL1 biochemical assay
With `Cc1cn([C@@H]2C[C@H](CCc3ccc4ccc(N)nc4c3)[C@@H](O)[C@H]2O)c2ncnc(N)c12` [I-66] the IC50 was greater than 1000 nM. `Nc1ncnc2c1ccn2[C@@H]1C[C@H](CCc2ccc3c(OCc4ccccc4)ccnc3c2)[C@@H](O)[C@H]1O` [I-86] was tested, and the IC50 was greater than 1000 nM. Molecule `CNc1ccc2cc(F)c(CC[C@H]3C[C@@H](n4ccc5c(N)ncnc54)[C@H](O)[C@@H]3O)cc2n1` [I-87] has an IC50 greater than 1000 nM. For `Nc1ncnc2c1ccn2[C@@H]1C[C@H](CCc2ccc3[nH]cnc3c2)[C@@H](O)[C@H]1O` [I-88], the IC50 was greater than 1000 nM. For `O[C@@H]1[C@@H](CCc2ccc3[nH]ncc3c2)C[C@@H](n2ccc3c(NCCc4ccccc4)ncnc32)[C@@H]1O` [I-89], the IC50 was greater than 1000 nM. With `Nc1ncnc2c1ccn2[C@@H]1C[C@H](CCc2ccc3[nH]ccc3c2)[C@@H](O)[C@H]1O` [I-92] the IC50 was greater than 1000 nM. `Nc1ncnc2c1ccn2[C@@H]1C[C@H](CCc2ccc3[nH]c(=O)[nH]c3c2)[C@@H](O)[C@H]1O` [I-93] was tested, and the IC50 was greater than 1000 nM. Molecule `CN(C[C@H]1C[C@@H](n2ccc3c(N)ncnc32)[C@H](O)[C@@H]1O)c1ccc2ccc(N)nc2c1` [I-94] has an IC50 greater than 1000 nM. With `NC(=O)Nc1cccc(CC[C@H]2C[C@@H](n3ccc4c(N)ncnc43)[C@H](O)[C@@H]2O)c1` [I-95] the IC50 was greater than 1000 nM. In the case of `Nc1ncnc2c1ccn2[C@@H]1C[C@H](CCc2cccc(NC(=O)C3CC3)c2)[C@@H](O)[C@H]1O` [I-96], the IC50 is reported as greater than 1000 nM. With `Nc1ccc2cc(CC[C@H]3C[C@@H](n4ccc5c(NCCc6ccccc6)ncnc54)[C@H](O)[C@@H]3O)ccc2n1` [I-97] the IC50 was greater than 1000 nM. Molecule `CCCNc1ccc2ccc(CC[C@H]3C[C@@H](n4ccc5c(N)ncnc54)[C@H](O)[C@@H]3O)cc2n1` [I-120] has an IC50 greater than 1000 nM. For `Nc1ncnc2c1ccn2[C@@H]1C[C@H](CCc2ccc3ccncc3c2)[C@@H](O)[C@H]1O` [I-131], the IC50 was greater than 1000 nM. `Nc1ccc2ccc(CC[C@H]3C[C@@H](n4ccc5c(NCCc6ccccc6)ncnc54)[C@H](O)[C@@H]3O)cc2n1` [I-134] gave an IC50 greater than 1000 nM. With `Nc1ncnc2c1ccn2[C@@H]1C[C@H](CCc2ccc3ccccc3c2)[C@@H](O)[C@H]1O` [I-136] the IC50 was greater than 1000 nM. `Nc1ncnc2c1ccn2[C@@H]1C[C@H](CCc2ccc3cc(Br)cnc3c2)[C@@H](O)[C@H]1O` [I-137] showed an IC50 greater than 1000 nM.

Each molecule was assayed against PRMT5-MEP50 (Homo sapiens, UniProt O14744) (assay: PRMT5 Assay (PRMT5 biochemical assay)). Settings: PRMT5 biochemical assay; read-out: PRMT5 IC50.
Sequence of PRMT5-MEP50 (O14744 whole entry): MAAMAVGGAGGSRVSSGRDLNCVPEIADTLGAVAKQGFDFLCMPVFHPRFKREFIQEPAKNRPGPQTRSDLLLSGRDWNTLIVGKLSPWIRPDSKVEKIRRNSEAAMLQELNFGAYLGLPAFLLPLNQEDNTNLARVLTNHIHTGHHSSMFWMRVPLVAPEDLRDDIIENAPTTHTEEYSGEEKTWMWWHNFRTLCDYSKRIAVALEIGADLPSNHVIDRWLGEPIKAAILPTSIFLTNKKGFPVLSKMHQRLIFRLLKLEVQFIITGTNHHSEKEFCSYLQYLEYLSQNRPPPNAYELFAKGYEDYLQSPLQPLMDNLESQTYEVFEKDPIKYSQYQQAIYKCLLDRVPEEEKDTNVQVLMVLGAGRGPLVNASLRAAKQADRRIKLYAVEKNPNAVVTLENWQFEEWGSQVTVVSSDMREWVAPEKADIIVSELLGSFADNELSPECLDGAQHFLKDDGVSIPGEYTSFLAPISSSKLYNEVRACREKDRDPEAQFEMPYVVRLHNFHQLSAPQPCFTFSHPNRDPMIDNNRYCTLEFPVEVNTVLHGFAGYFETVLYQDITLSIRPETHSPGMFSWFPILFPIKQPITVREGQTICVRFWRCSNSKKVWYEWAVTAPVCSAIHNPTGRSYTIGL
Sequence of PRMT5-MEP50 (Q9BQA1 whole entry partner): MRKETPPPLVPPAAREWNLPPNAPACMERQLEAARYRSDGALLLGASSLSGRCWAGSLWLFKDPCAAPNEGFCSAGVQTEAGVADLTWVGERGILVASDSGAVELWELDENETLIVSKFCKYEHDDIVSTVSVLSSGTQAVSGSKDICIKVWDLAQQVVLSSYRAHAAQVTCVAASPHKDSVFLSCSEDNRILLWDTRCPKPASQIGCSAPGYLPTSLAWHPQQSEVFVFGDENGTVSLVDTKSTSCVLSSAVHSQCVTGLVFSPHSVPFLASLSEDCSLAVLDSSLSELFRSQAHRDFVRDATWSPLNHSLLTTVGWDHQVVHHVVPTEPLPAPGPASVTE
Experimental: Assays were performed in a 25 μl-volume in 384-well V-bottom polypropylene microplates (Greiner Bio-One, cat. No. 781280) at ambient temperature. Optimized 1× assay buffer was 20 mM Tris-HCl pH 8.0, 1 mM DTT, […]. For compound screening PRMT5-MEP50 (final concentration, f.c.=2.5 nM) was added using a Multidrop Combi (ThermoFisher Scientific, Waltham, Mass.) and preincubated for 5 min. Reactions were started by adding 3′ biotinylated histone H4 peptide acetylated on serine 1 (Ac-[…]-Biotin) (f.c.=100 nM) and 3H-SAM (f.c.=250 nM) substrates. Reactions proceeded for 60 minutes and were quenched with excess non-radioactive SAM (f.c.=15 μM). The reactions were then transferred to streptavidin-coated flashplates and incubated for 2 hours at 25° C. Following two washing cycles with 0.1% Tween-20, the plates were sealed and read on a TopCount (PerkinElmer, Waltham, Mass.) plate-based scintillation counter. For determination of kinetic parameters, reaction times were optimized so that measurements were taken during the initial velocity phase of the reaction.
For `Cc1cn([C@@H]2C[C@H](CCc3ccc4ccc(N)nc4c3)[C@@H](O)[C@H]2O)c2ncnc(N)c12` [I-66], the IC50 was less than 10 nM. `Nc1ncnc2c1ccn2[C@@H]1C[C@H](CCc2ccc3c(OCc4ccccc4)ccnc3c2)[C@@H](O)[C@H]1O` [I-86] showed an IC50 of less than 10 nM. Work on `CNc1ccc2cc(F)c(CC[C@H]3C[C@@H](n4ccc5c(N)ncnc54)[C@H](O)[C@@H]3O)cc2n1` [I-87] yielded an IC50 of less than 10 nM. `Nc1ncnc2c1ccn2[C@@H]1C[C@H](CCc2ccc3[nH]cnc3c2)[C@@H](O)[C@H]1O` [I-88] was tested, and the IC50 was less than 10 nM. Work on `O[C@@H]1[C@@H](CCc2ccc3[nH]ncc3c2)C[C@@H](n2ccc3c(NCCc4ccccc4)ncnc32)[C@@H]1O` [I-89] yielded an IC50 of 100 to 1000 nM. With `Nc1ccc2ccc(OC[C@H]3C[C@@H](n4ccc5c(NCCc6ccccc6)ncnc54)[C@H](O)[C@@H]3O)cc2n1` [I-91] the IC50 was less than 10 nM. Work on `Nc1ncnc2c1ccn2[C@@H]1C[C@H](CCc2ccc3[nH]ccc3c2)[C@@H](O)[C@H]1O` [I-92] yielded an IC50 of 100 to 1000 nM. `Nc1ncnc2c1ccn2[C@@H]1C[C@H](CCc2ccc3[nH]c(=O)[nH]c3c2)[C@@H](O)[C@H]1O` [I-93] was tested, and the IC50 was 10 to 100 nM. For `CN(C[C@H]1C[C@@H](n2ccc3c(N)ncnc32)[C@H](O)[C@@H]1O)c1ccc2ccc(N)nc2c1` [I-94], the IC50 was less than 10 nM. In the case of `NC(=O)Nc1cccc(CC[C@H]2C[C@@H](n3ccc4c(N)ncnc43)[C@H](O)[C@@H]2O)c1` [I-95], the IC50 is reported as 100 to 1000 nM. `Nc1ncnc2c1ccn2[C@@H]1C[C@H](CCc2cccc(NC(=O)C3CC3)c2)[C@@H](O)[C@H]1O` [I-96] gave an IC50 of 100 to 1000 nM. `Nc1ccc2cc(CC[C@H]3C[C@@H](n4ccc5c(NCCc6ccccc6)ncnc54)[C@H](O)[C@@H]3O)ccc2n1` [I-97] showed an IC50 of 100 to 1000 nM. `CCCNc1ccc2ccc(CC[C@H]3C[C@@H](n4ccc5c(N)ncnc54)[C@H](O)[C@@H]3O)cc2n1` [I-120] showed an IC50 of less than 10 nM. With `Nc1ncnc2c1ccn2[C@@H]1C[C@H](CCc2ccc3ccncc3c2)[C@@H](O)[C@H]1O` [I-131] the IC50 was 10 to 100 nM. In the case of `Nc1ncnc2c1ccn2[C@@H]1C[C@H](CCc2ccc3ccc(NCC4CC4)nc3c2)[C@@H](O)[C@H]1O` [I-132], the IC50 is reported as less than 10 nM. With `Nc1ncnc2c1ccn2[C@@H]1C[C@H](CCc2ccc3cccnc3c2)[C@@H](O)[C@H]1O` [I-133] the IC50 was less than 10 nM. `Nc1ccc2ccc(CC[C@H]3C[C@@H](n4ccc5c(NCCc6ccccc6)ncnc54)[C@H](O)[C@@H]3O)cc2n1` [I-134] was tested, and the IC50 was less than 10 nM. Molecule `Nc1ncnc2c1ccn2[C@@H]1C[C@H](CCc2ccc3ccccc3c2)[C@@H](O)[C@H]1O` [I-136] has an IC50 greater than 1000 nM. In the case of `Nc1ncnc2c1ccn2[C@@H]1C[C@H](CCc2ccc3cc(Br)cnc3c2)[C@@H](O)[C@H]1O` [I-137], the IC50 is reported as less than 10 nM.

Same assay, conditions: read-out: PRMT5 IC50; PRMT5 biochemical assay
`Cn1cc(-c2cn([C@@H]3C[C@H](CCc4ccc5ccc(N)nc5c4)[C@@H](O)[C@H]3O)c3ncnc(N)c23)cn1` [I-63] was tested, and the IC50 was less than 10 nM.
